Laboratory results as given in patent US20140271734A1, “BILE ACID RECYCLING INHIBITORS FOR TREATMENT OF BARRETT'S ESOPHAGUS AND GASTROESOPHAGEAL REFLUX DISEASE” (LUMENA PHARMACEUTICALS, INC., priority 2013, published 2014).

Columns and labels:
[1] = test system: postprandial serum bile acids AUC; test: Inhibition of the postprandial rise in SBA, LUM001 compared to cholestyramine; type: in vivo, dogs
Procedure: LUM001 was dissolved in 0.2% Tween 80 at concentrations that required the administration of 0.2 ml dosing solution/kg of body weight at each dose tested. Cholestyramine was suspended in water at concentrations that required the administration of 2.5 ml/kg (500 mg/kg) and 1 ml/kg (200 mg/kg). The appropriate volume of solution formulation for each animal was placed into a gelatin capsule, Torpac Inc., size 13, Batch 594, East Hanover, N.J. and administered per os. Test compounds were administered as single oral doses to groups of dogs, 3 to 9 dogs per group at varying dosages. LUM001 and cholestyramine were administered in solution 30 minutes prior to feeding and blood samples collected at 30-minute intervals for four hours after feeding. LUM001 was given at 0, 0.02, 0.05, 0.2, 0.6, 2, 5 or 15 mg/kg. Cholestyramine was administered at 200 or 500 mg/kg. […] No dog received any one compound dosage more than once. SBA was measured by an enzymatic assay. SBA values are expressed as μg of total bile acids/ml of serum.

fecal bile acid (FBA) = test: Fecal bile acids in rats, LUM001 Q.D. for four days; type: in vivo, Wistar rats
Procedure: Male Wistar rats (Charles River Laboratories) weighing 275-300 grams were single-housed in a constant temperature environment with alternating 12 hour light and dark cycles. All animals had continuous access to a commercial rodent diet as well as water. In each study rats were randomly assigned to either vehicle or treatment groups and were administered intragastric doses (Q.D. gavage) of drug dissolved in aqueous 0.2% (v/v) Tween 80 (2 ml kg body weight). The animals were dosed in the morning between 9:00 and 10:00 a.m. for four consecutive days. Fecal samples were collected on papers underneath each cage during the final 48 hour period of the study and analyzed for bile acid content.
Cage papers containing the 48-hour fecal samples were collected at approximately 9:00 a.m. on the final day and used to determine the individual fecal bile acid (FBA) concentration for each animal. Fecal samples from each rat were weighed and a weight of distilled water (1 gram/mL) equal to 2 times the total weight of feces was added to each sample container (e.g., 20 mL water to 10 grams feces). The containers were stored overnight at 4° C. Each sample was homogenized for approximately 45 seconds using a small food processor to yield a homogeneous slurry. 1.4 grams of the homogenate was weighed into 16×100 polypropylene tubes and 2.6 mL of tertiary butanol/distilled water (2:0.6) added to yield a final concentration of 50% (v/v) tertiary butanol in water. The sample was extracted by incubation for 45 minutes in a 37° C. water bath, and subjected to centrifugation at 3000×g for 13 minutes and the supernatant extract collected.
The concentration of bile acids […] in the extract was determined using a 96-well enzymatic assay system (4,5). 20 μl aliquots of each butanol extract was added to two sets of triplicate wells in a 96-well assay plate (one set on each half of the plate). Standardized sodium taurocholate solutions (0.2 and 0.9 mM) and standardized fecal extract solutions (previously made from pooled fecal samples collected from control and drug-treated rats) were analyzed in parallel to provide a bile acid standard curve and internal quality control samples, respectively. 20 μl aliquots of the sodium taurocholate standard were serially diluted to generate a standard curve and were added to two separate sets of triplicate wells.
To each well, 230 μl of reaction mixture containing 1M hydrazine hydrate, 0.1 M pyrophosphate and 0.46 mg/ml NAD was added. To start the reaction, a 50 μl aliquot of either 3a-hydroxysteroid dehydrogenase enzyme (HSD; 0.8 units/ml) or assay buffer (0.1 M sodium pyrophosphate) was added to one set of triplicate wells for each sample, respectively, with the set containing the assay buffer serving as the reaction blank. All reagents were obtained from Sigma Chemical Co., St. Louis, Mo. Following a 60 minute incubation at room temperature, the optical density at 340 nm was measured and the mean of each set of triplicate wells was calculated. The difference in optical density between the corresponding wells containing the HSD enzyme and the wells containing the assay buffer was used to determine the bile acid concentration (mM) of each sample by comparison to the sodium taurocholate standard curve. The bile acid concentration of the extract and the weight of the fecal homogenate (grams) were used to calculate FBA concentration in mmoles/day for each animal. The mean FBA concentration (mmoles/day) of the vehicle group was subtracted from the FBA concentration of individual rats in a treatment group to yield the increase in FBA concentration due to drug treatment for that animal. A mean value for the increase in FBA for each group was determined and compared to the vehicle group used, to determine compound dosing efficacy. Data was the average from the two days of fecal collection (Mean±SEM, n=4-20). […]

CCCCC1(CCCC)CS(=O)(=O)c2ccc(N(C)C)cc2[C@@H](c2ccc(OCc3ccc(C[N+]45CCN(CC4)CC5)cc3)cc2)[C@H]1O [LUM001]
Inhibition of postprandial serum bile acids AUC (0-240 min) compared to cholestyramine ([1]; LUM001 0.02-15 mg/kg vs cholestyramine 200 or 500 mg/kg, single oral doses): superior inhibition of postprandial serum bile acids AUC, at a lower dose | Serum bile acids ([1]; single oral dose 0.02-15 mg/kg 30 minutes prior to feeding): significantly decreased serum bile acids | Fecal Bile Acids (fecal bile acid (FBA); Q.D. 0.0006 mg/kg/day): 34 µmol/day | Fecal Bile Acids, Increase over Vehicle (Delta) (fecal bile acid (FBA); Q.D. 0.0006 mg/kg/day): 12.1 µmol/day | Fecal Bile Acids (fecal bile acid (FBA); Q.D. 0.002 mg/kg/day): 26.6 µmol/day | Fecal Bile Acids, Increase over Vehicle (Delta) (fecal bile acid (FBA); Q.D. 0.002 mg/kg/day): 4.1 µmol/day | Fecal Bile Acids (fecal bile acid (FBA); Q.D. 0.003 mg/kg/day): 31.3 µmol/day | Fecal Bile Acids, Increase over Vehicle (Delta) (fecal bile acid (FBA); Q.D. 0.003 mg/kg/day): 10.7 µmol/day | Fecal Bile Acids (fecal bile acid (FBA); Q.D. 0.008 mg/kg/day): 25.8 µmol/day | Fecal Bile Acids, Increase over Vehicle (Delta) (fecal bile acid (FBA); Q.D. 0.008 mg/kg/day): 5.9 µmol/day | Fecal Bile Acids (fecal bile acid (FBA); Q.D. 0.016 mg/kg/day): 41.6 µmol/day | Fecal Bile Acids, Increase over Vehicle (Delta) (fecal bile acid (FBA); Q.D. 0.016 mg/kg/day): 24.7 µmol/day | Fecal Bile Acids (fecal bile acid (FBA); Q.D. 0.04 mg/kg/day): 44 µmol/day | Fecal Bile Acids, Increase over Vehicle (Delta) (fecal bile acid (FBA); Q.D. 0.04 mg/kg/day): 21.7 µmol/day | Fecal Bile Acids (fecal bile acid (FBA); Q.D. 0.08 mg/kg/day): 55.6 µmol/day | Fecal Bile Acids, Increase over Vehicle (Delta) (fecal bile acid (FBA); Q.D. 0.08 mg/kg/day): 35.2 µmol/day | Fecal Bile Acids (fecal bile acid (FBA); Q.D. 0.2 mg/kg/day): 62.7 µmol/day | Fecal Bile Acids, Increase over Vehicle (Delta) (fecal bile acid (FBA); Q.D. 0.2 mg/kg/day): 40.8 µmol/day | Fecal Bile Acids (fecal bile acid (FBA); Q.D. 0.4 mg/kg/day): 62.3 µmol/day | Fecal Bile Acids, Increase over Vehicle (Delta) (fecal bile acid (FBA); Q.D. 0.4 mg/kg/day): 47 µmol/day | Fecal Bile Acids (fecal bile acid (FBA); Q.D. 2 mg/kg/day): 71.6 µmol/day | Fecal Bile Acids, Increase over Vehicle (Delta) (fecal bile acid (FBA); Q.D. 2 mg/kg/day): 54.6 µmol/day | Fecal Bile Acids (fecal bile acid (FBA); all doses, Q.D. gavage for four days): significantly increased fecal bile acids for all doses
